Assay [1] has as its system almost 60 protein kinases. Put plainly: SelectScreen kinase profiling: all the other tested kinases of the panel. The following applies: 1 μM; all tested kinases other than PDK1 and mTOR. The assay is classed as biochemical. How it is done: Effect of the indicated compounds on the activity of various kinases was assessed by SelectScreen Kinase Profiling Service (Invitrogen-Life Technologies, Paisley, UK). Assays were performed using 1 μM of the tested compounds and ATP concentration as indicated in the corresponding tables. In the case of InsP5 a screen using 10 μM of the compound was also carried out, as indicated in the corresponding table.
None of the other polyphosphates had any significant effect (Table 1C). […] This is consistent with the detected inhibition of Thr308 phosphorylation in 2-O-Bn-InsP5-treated SKOV-3 and PC3 cells (Figure 1B and C) and 2-O-Bn-InsP5-treated mice (Figure 4D).

Assay [2] deals with SKOV-3. In words: Cell survival by cell counting, SKOV-3. The format is cell-based, human. The following applies: SKOV-3, 72 h. How it is done:
(§1) Cells seeded in a 24-well plate were treated with the indicated compounds in serum free DMEM or DMEM containing 0.5% FBS (PC3). After 72 h, the number of surviving cells was assessed by manual cell counting or by using the cell counter CDA-500 (Sysmex, Milton Keynes, UK). Alternatively, after 48 h, the number of apoptotic cells was assessed by acridine orange/ethidium bromide assay as described ([Piccolo et al, 2004]; [Maffucci et al, 2005]). SRB test was carried out in SKOV-3 and PC3 seeded in 96-well plate (3800 cells per well or 5800 cells per well, respectively) after 72 h of treatment as described ([Cappella et al, 2001]).
(§2) The number of surviving cells was assessed by cell counting. Data are mean±s.e. of n=4 (A) and n=2 (B) independent experiments. ^**=P<0.05. […] The number of apoptotic cells was assessed by acridine orange/ethidium bromide assay. Data are mean±s.e. of three independent experiments. ^**=P<0.05.

Assay [3] concerns BxPc-3. Put plainly: Cell survival by cell counting, BxPc-3. The note with it: BxPc-3, 72 h. The assay is classed as cell-based, human. How it is done:
as §1
The number of surviving cells was assessed by cell counting. Data are mean±s.e. of n=3 (A), n=6 (B), n=3 (C) and n=4 (D) independent experiments carried out in duplicate. ^*=P<0.01; ^**=P<0.05. […] After 72 h the number of surviving cells was assessed by SRB assay. Data are mean±s.e. of n=2 independent experiments.

The subject of assay [4] is SKOV-3. In words: Acridine orange/ethidium bromide apoptosis assay, SKOV-3. The following applies: SKOV-3, acridine orange/ethidium bromide assay. The format is cell-based, human. How it is done:
as §1, §2

Assay [5] concerns Akt phosphorylation at Ser473 and Thr308 in PC3 tumours. Put plainly: Akt phosphorylation in excised tumours (western blot). The note with it: single dose 50 mg kg^−1, tumours excised 24 h after treatment. The assay is classed as in vivo, nude athymic CD-1 nu/nu mice. How it is done: Animals were killed 24 h after treatment and tumour samples were collected and snap frozen. Frozen specimens of tumour tissue were homogenised with a Polytron homogeniser in a lysis buffer (ratio 1 : 1 w/v) containing 50 mM Tris-HCl (pH 7.4), 5 mM EDTA, 0.1% Nonidet NP-40, 250 mM NaCl, 50 mM NaF and proteases and phosphatase inhibitors. After centrifugation at 13 000 r.p.m. for 10 min at 4°C, 80 μg of protein was separated on SDS–PAGE and transferred to a polyvinylidene difluoride membrane (Millipore, MA, USA). Membranes were probed with the indicated antibodies.
The inositol compounds (12.5–25–50 mg kg^−1 day^−1) and vehicle (water) were given daily by intraperitoneal (i.p.) injections for 14 consecutive days (days 15–28). Tumour size was assessed twice weekly. (A, B) Tumour growth in 2-O-Bn-InsP5-treated mice (A) and InsP5-treated mice (B) compared with control group measured for the duration of the experiment. Results are expressed as mean±s.e. (C) Top: Table showing all P-values for the indicated doses of 2-O-Bn-InsP5 compared to controls at the indicated days of treatment (NS=not significant). […] The percentage of tumour weight inhibition (TWI%), the tumour growth delay (T−C) and the log cell kill (LCK) were calculated as described in the MATERIALS AND METHODS section. […] Phosphorylation of Akt at its residues Ser473 and Thr308 was assessed by using specific antibodies. […]

Assay [6] deals with CAMK1 (CaMK1) (Homo sapiens, UniProt Q14012). In words: SelectScreen kinase profiling: CAMK1. The format is biochemical. The note with it: 10 µM compound; [ATP] 100 µM. How it is done: Effect of the indicated compounds on the activity of various kinases was assessed by SelectScreen Kinase Profiling Service (Invitrogen-Life Technologies, Paisley, UK). Assays were performed using 1 μM of the tested compounds and ATP concentration as indicated in the corresponding tables. In the case of […] a screen using 10 μM of the compound was also carried out, as indicated in the corresponding table.
Sequence of CAMK1 (CaMK1) (Q14012 whole entry): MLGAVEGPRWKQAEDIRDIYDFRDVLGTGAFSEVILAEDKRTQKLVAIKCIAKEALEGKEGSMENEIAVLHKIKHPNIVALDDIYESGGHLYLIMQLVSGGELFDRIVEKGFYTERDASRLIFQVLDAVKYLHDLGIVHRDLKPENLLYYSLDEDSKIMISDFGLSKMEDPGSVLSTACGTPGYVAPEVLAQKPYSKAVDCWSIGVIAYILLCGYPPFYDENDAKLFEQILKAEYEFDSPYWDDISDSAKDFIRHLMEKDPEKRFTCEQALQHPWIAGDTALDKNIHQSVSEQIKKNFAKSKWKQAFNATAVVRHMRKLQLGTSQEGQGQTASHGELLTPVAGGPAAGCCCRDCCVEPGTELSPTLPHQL

Regarding `O=P(O)(O)OC1C(OCc2ccccc2)C(OP(=O)(O)O)C(OP(=O)(O)O)C(OP(=O)(O)O)C1OP(=O)(O)O` (stereo not shown) [2-O-Bn-InsP5, 2-O-benzyl-myo-inositol 1,3,4,5,6-pentakisphosphate], the “percentage of inhibition of all the other tested kinases” value in assay [1] is given as under 40%. Also, the “number of surviving cells” value in assay [2] is “strongly reduced the number of surviving”. Besides, in assay [3], the “number of surviving cells” value is on record as “more potent than InsP5 at a concentration of 50 μM”. Moreover, the “percentage of apoptotic cells” value in assay [4] was “percentage of apoptotic cells was higher in 2-O-Bn-InsP5-treated compared with InsP5-treated”. In assay [5], the “Akt phosphorylation at residue Ser473 in tumours” value was “markedly reduced Akt phosphorylation at its residue Ser473 in all 2-O-Bn-InsP5-treated mice” and the “Akt phosphorylation at residue Thr308 in tumours” value is “clear inhibition of Akt phosphorylation at its residue Thr308 was detected in five out of seven”.

Regarding `O=P(O)(O)OC1C(O)C(OP(=O)(O)O)C(OP(=O)(O)O)C(OP(=O)(O)O)C1OP(=O)(O)O` (stereo not shown) [InsP5, inositol 1,3,4,5,6-pentakisphosphate], the inhibition – broadly, the relative decrease from the control value, in per cent – at 10 µM in assay [6] was -46%.
